From patent US6620828B2, “Thiazole compounds and pharmaceutical compositions for inhibiting protein kinases and methods for their use” (Agouron Pharmaceuticals, Inc., priority 1999, dated 2003)

How the values were obtained:
[1] = biological target: T1, phosphorylated VEGF-R2Δ50 (FLVK-P) (Homo sapiens, UniProt P35968, DEL940-989/E990V); assay: VEGF-R2 coupled spectrophotometric (FLVK-P) assay; assay type: biochemical; details: for Ki: Table 1, spectrophotometric assay
T1 construct: VEGF-R2Δ50 contains residues 806-939 and 990-1171; made in house; host or cells: baculovirus/insect cells
T1 sequence (P35968 with tags, fused parts or gaps DEL940-989/E990V limits assumed): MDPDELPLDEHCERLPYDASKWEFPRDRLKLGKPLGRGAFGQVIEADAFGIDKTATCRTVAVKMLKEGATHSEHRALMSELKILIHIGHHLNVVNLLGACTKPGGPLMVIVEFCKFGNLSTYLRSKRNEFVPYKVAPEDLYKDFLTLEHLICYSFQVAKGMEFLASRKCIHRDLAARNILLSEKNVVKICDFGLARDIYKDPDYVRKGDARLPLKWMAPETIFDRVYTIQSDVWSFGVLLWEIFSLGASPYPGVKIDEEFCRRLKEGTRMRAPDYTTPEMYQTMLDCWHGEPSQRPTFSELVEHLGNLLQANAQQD
Method in brief: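 Baculovirus-expressed human VEGF-R2Δ50 (residues 806-939/990-1171, E990V) was autophosphorylated with 3 mM ATP, 40 mM MgCl2 for 2 h at 4° C. ADP formation was coupled via PK/LDH to NADH oxidation, read at 340 nm, with 5.1 mM poly(E4Y1), 1 mM ATP, 25 mM MgCl2, Hepes pH 7.5. Ki came from activity across compound concentrations.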

[2] = system: human umbilical vein endothelial cells (HUVEC); assay: HUVEC proliferation assay; assay type: cell-based; details: Homo sapiens, HUVEC
Method in brief: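 Readout was MTT dye reduction (A595) after 72 h of stimulation with VEGF at 6 ng/ml final. Compound, in 0.1% DMSO final, was added 1 h before VEGF to HUVEC starved 24 h in 1% FBS. % inhibition was scaled between VEGF-alone and unstimulated wells; IC50 was fitted from triplicate dose curves.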

[3] = system: lung cancer cells (line MV522); assay: Cancer cell proliferation (MV522) assay; assay type: cell-based; details: MV522, Table 1
Protocol: Cancer Cell Proliferation (MV522) Assay
The protocol for assessing cellular proliferation in cancer cells is similar to that used for assessments in HUVEC cells. Two thousand lung cancer cells (line MV522, acquired from American Tissue Cultural Collection) were seeded in growth media (RPMI1640 medium supplemented with 2 mM glutamine and 10% FBS). Cells are allowed to attach for 1 day prior to addition of test agents and/or vehicles. Cells are treated simultaneously with the same test agents used in the HUVEC assay. Cellular proliferation is quantified by MTT dye reduction assay 72 hours after exposure to test agents. The total length of the assay is 4 days vs. 5 for HUVEC cells because MV522 cells are not exposed to starvation medium.

[4] = biological target: T2, unphosphorylated VEGF-R2Δ50 (FLVK) (Homo sapiens, UniProt P35968, DEL940-989/E990V); assay: VEGF-R2 coupled spectrophotometric assay, unphosphorylated enzyme (FLVK); assay type: biochemical; details: for inhibition at 0.05 µM: at 50 nM
T2 construct: VEGF-R2Δ50 contains residues 806-939 and 990-1171; made in house; host or cells: baculovirus/insect cells
T2 sequence (P35968 with tags, fused parts or gaps DEL940-989/E990V limits assumed): as above
Description: VEGF-R2 Construct for Assay: This construct determines the ability of a test compound to inhibit tyrosine kinase activity. A construct (VEGF-R2Δ50) of the cytosolic domain of human vascular endothelial growth factor receptor 2 (VEGF-R2) lacking the 50 central residues of the 68 residues of the kinase insert domain was expressed in a baculovirus/insect cell system. Of the 1356 residues of full-length VEGF-R2, VEGF-R2Δ50 contains residues 806-939 and 990-1171, and also one point mutation (E990V) within the kinase insert domain relative to wild-type VEGF-R2. Autophosphorylation of the purified construct was performed by incubation of the enzyme at a concentration of 4 μM in the presence of 3 mM ATP and 40 mM MgCl2 in 100 mM Hepes, pH 7.5, containing 5% glycerol and 5 mM DTT, at 4° C. for 2 h. […] See Parast et al., Biochemistry, 37, 16788-16801 (1998).
The production of ADP from ATP that accompanies phosphoryl transfer was coupled to oxidation of NADH using phosphoenolpyruvate (PEP) and a system having pyruvate kinase (PK) and lactic dehydrogenase (LDH). The oxidation of NADH was monitored by following the decrease of absorbance at 340 nm (e340=6.22 cm^−1 mM^−1) using a Beckman DU 650 spectrophotometer. Assay conditions for phosphorylated VEGF-R2Δ50 (indicated as FLVK-P in the tables below) were the following: 1 mM PEP; 250 μM NADH; 50 units of LDH/mL; 20 units of PK/mL; 5 mM DTT; 5.1 mM poly(E4Y1); 1 mM ATP; and 25 mM MgCl2 in 200 mM Hepes, pH 7.5. Assay conditions for unphosphorylated VEGF-R2Δ50 (indicated as FLVK in the tables) were the following: 1 mM PEP; 250 μM NADH; 50 units of LDH/mL; 20 units of PK/mL; 5 mM DTT; 20 mM poly(E4Y1); 3 mM ATP; and 60 mM MgCl2 and 2 mM MnCl2 in 200 mM Hepes, pH 7.5. Assays were initiated with 5 to 40 nM of enzyme. Ki values were determined by measuring enzyme activity in the presence of varying concentrations of test compounds. The data were analyzed using Enzyme Kinetic and Kaleidagraph software.

[5] = Table 3, some entries 'Slow binder'

| Structure (SMILES) | Ki [1] [nM] | IC50 ([2]; Table 1) [nM] | IC50 [3] [nM] | IC50 ([2]; Table 3) [nM] | Ki [4, 5] [nM] | also measured |
| --- | --- | --- | --- | --- | --- | --- |
| COc1ccc(Nc2nc(N)c(-c3nc(-c4cccc(NC(=O)c5ccccc5)c4)cs3)s2)cc1OC [A(47), N-{3-[4′-Amino-2′-(3,4-dimethoxy-phenylamino)-[2,5′]bithiazolyl-4-yl]-phenyl}-benzamide] | 7.9 | 260 | > 10000 |  |  |  |
| COc1cc(Nc2nc(N)c(-c3nc(-c4cccc(NC(=O)OC(C)(C)C)c4)no3)s2)cc(OC)c1OC [B(2), 3-(3-tert-Butyloxycarboxy-aminophenyl)-5-[2-[(3,4,5-trimethoxyphenyl)amino]-4-amino-5-thiazolyl]-1,2,4-oxadiazole] | 16.5 | > 700 | 3650 |  |  |  |
| COc1cc(Nc2nc(N)c(-c3nc(-c4cc(N)c(F)cc4F)no3)s2)cc(OC)c1OC [C(8), 5-[3-(5-Amino-2,4,-difluoro-phenyl)-[1,2,4]oxadiazol-5-yl]-N2-(3,4,5-trimethoxy-phenyl)-thiazole-2,4-diamine] |  |  |  | > 700 |  | inhibition at 0.05 µM ([4]; Table 3): 21% |
| COc1cc(Nc2nc(N)c(-c3nc(-c4cc(N)c(F)cc4Cl)no3)s2)cc(OC)c1OC [C(9), 5-[3-(5-Amino-2-chloro-4-fluoro-phenyl)-[1,2,4]oxadiazol-5-yl]-N-(3,4,5-trimethoxy-phenyl)-thiazole-2,4-diamine] |  |  |  | 300 | 8 |  |
| COc1cc(Nc2nc(N)c(-c3nc(-c4cccc(NS(C)(=O)=O)c4)cs3)s2)cc(OC)c1OC [D(3), N-{3-[4′-Amino-2′-(3,4,5-trimethoxy-phenylamino)-[2,5′]bithiazolyl-4-yl]-phenyl}-methanesulfonamide] | 63 | > 700 | > 10000 |  |  |  |
| Nc1nc(Nc2ccccc2)sc1-c1nc(-c2cccc(NC(=O)OCc3ccccc3)c2)cs1 [D(20), [3-(4′-Amino-2′-phenylamino-[2,5′]bithiazolyl-4-yl)-phenyl]-carbamic acid benzyl ester] | 3.7 | 990 | > 10000 |  |  |  |
| COc1cc(Nc2nc(N)c(-c3nc(-c4cccc(NC(=O)O[C@H](C)c5ccccc5)c4)cs3)s2)cc(OC)c1OC [D(23), {3-[4′-Amino-2′-(3,4,5-trimethoxy-phenylamino)-[2,5′]bithiazolyl-4-yl]-phenyl}-carbamic acid 1-R-phenyl-ethyl ester] | 150 | 130 | > 10000 |  |  |  |
| Nc1nc(Nc2ccc(S(N)(=O)=O)cc2)sc1-c1nc(-c2cccc(NC(=O)OCc3ccccc3)c2)cs1 [D(25), {3-[4′-Amino-2′-(4-sulfamoyl-phenylamino)-[2,5′]bithiazolyl-4-yl]-phenyl}-carbamic acid benzyl ester] | 1 | 745 | > 10000 |  |  |  |
| COc1cc(Nc2nc(N)c(-c3nc(-c4cccc(NC(C)=O)c4)no3)s2)cc(OC)c1OC [D(45), 3-[3-Acetamidophenyl]-5-[2-[(3,4,5-trimethoxyphenyl)amino]-4-amino-5-thiazolyl]-1,2,4-oxadiazole] |  | 235 | 650 |  |  |  |
| C#CCCCC(=O)Nc1cccc(-c2noc(-c3sc(Nc4cc(OC)c(OC)c(OC)c4)nc3N)n2)c1 [D(62), Hex-5-ynoic acid (3-{5-[4-amino-2-(3,4,5-trimethoxy-phenylamino)-thiazol-5-yl]-[1,2,4]oxadiazol-3-yl}-phenyl)-amide] |  |  |  | 500 |  | inhibition at 0.05 µM ([4]; Table 3): 20% |
| Nc1nc(Nc2cccc(-c3nn[nH]n3)c2)sc1-c1nc(-c2cccc(NC(=O)c3cccc(Cl)c3)c2)no1 [D(63), N-[3(5-{4-Amino-2-[3-(2H-tetrazol-5-yl)-phenylamino]-thiazol-5-yl]-[1,2,4]oxadiazol-3-yl)-phenyl]-3-chloro-benzamide] |  |  |  | > 10000 |  | inhibition at 0.05 µM ([4]; Table 3): 51% |
| COc1cc(Nc2nc(N)c(-c3nc(-c4cccc(NC(=O)c5cccc(C#N)c5)c4)no3)s2)cc(OC)c1OC [D(68)] |  |  |  | > 100 | 0.69 |  |
| COc1cc(Nc2nc(N)c(-c3nc(-c4cccc(NC(=O)c5ccc(CN6CCOCC6)cc5)c4)no3)s2)cc(OC)c1OC [D(76)] |  |  |  | > 1000 | 2.7 |  |
| CNC(=O)Nc1nc(N)c(-c2nc(-c3cccc(NC(=O)c4ccc(Cl)s4)c3)cs2)s1 [F(1), 5-Chloro-thiophene-2-carboxylic acid {3-[4′-amino-2′-(3-methyl-ureido)-[2,5′]bithiazolyl-4-yl]-phenyl}-amide] | 0.91 | 29 |  |  |  | Ki ([4]; Table 1): 1.4 nM |
| CC(=O)Nc1nc(N)c(-c2nc(-c3cccc(NC(=O)c4ccc(Cl)s4)c3)cs2)s1 [F(2), N-[3-(2′-Acetylamino-4′-amino-[2,5′]bithiazolyl-4-yl)-phenyl]-5-chloro-thiophene-2-carboxamide] | 3.9 | 86 |  |  |  | Ki ([4]; Table 1): 4.71 nM |
| Cc1cccc(C(=O)Nc2cccc(-c3noc(-c4sc(NC(=O)Nc5ccccc5)nc4N)n3)c2)c1 [F(12), N-(3-{5-[4-Amino-2-(3-phenyl-ureido)-thiazol-5-yl]-[1,2,4]oxadiazol-3-yl}-phenyl)-3-methyl-benzamide] |  |  |  | > 300 | 2.2 |  |
| Cc1cccc(C(=O)Nc2cccc(-c3noc(-c4sc(NC(=O)NCc5ccccc5)nc4N)n3)c2)c1 [F(14), N-(3-{5-[4-Amino-2-(3-benzyl-ureido)-thiazol-5-yl]-[1,2,4]oxadiazol-3-yl}-phenyl)-3-methyl-benzamide] |  |  |  | 150 | 0.36 |  |
| COc1cccc(C(=O)Nc2cc(-c3noc(-c4sc(NC(=O)NCC(C)C)nc4N)n3)c(F)cc2F)c1 [O(7), N-(5-{5-[4-Amino-2-(3-isobutyl-ureido)-thiazol-5-yl]-[1,2,4]oxadiazol-3-yl}-2,4-difluoro-phenyl)-3-methoxy-benzamide] |  |  |  | 5.2 | 0.16 |  |
| COc1cccc(C(=O)Nc2cc(-c3noc(-c4sc(NC(=O)NCc5cccnc5)nc4N)n3)c(F)cc2F)c1 [O(9), N-(5-{5-[4-Amino-2-(3-pyridin-3-ylmethyl-ureido)-thiazol-5-yl]-[1,2,4]oxadiazol-3-yl}-2,4-difluoro-phenyl)-3-methoxy-benzamide] |  |  |  | 4.3 | 0.42 |  |
| COc1cccc(C(=O)Nc2cc(-c3noc(-c4sc(NC(=O)NCCO)nc4N)n3)c(F)cc2F)c1 [O(10), N-[5-(5-{4-Amino-2-[3-(2-hydroxy-ethyl)-ureido]-thiazol-5-yl}-[1,2,4]oxadiazol-3-yl)-2,4-difluoro-phenyl]-3-methoxy-benzamide] |  |  |  | 6.7 | 94 |  |
| COc1cccc(C(=O)Nc2cc(-c3noc(-c4sc(NC(=O)N[C@H]5CC[C@H](O)CC5)nc4N)n3)c(F)cc2F)c1 [O(11), N-[5-(5-{4-Amino-2-[3-(trans-4-hydroxy-cyclohexyl)-ureido]-thiazol-5-yl}-[1,2,4]oxadiazol-3-yl)-2,4-difluoro-phenyl]-3-methoxy-benzamide] |  |  |  | 14 | 0.45 |  |
| CC[C@H](CO)NC(=O)Nc1nc(N)c(-c2nc(-c3cc(NC(=O)c4cccc(OC)c4)c(F)cc3F)cs2)s1 [O(21), N-(5-{4′-Amino-2′-[3-((R)-1-hydroxymethyl-propyl)-ureido]-[2,5′]bithiazolyl-4-yl}-2,4-difluoro-phenyl)-3-methoxy-benzamide] |  |  |  |  | 1.1 | inhibition at 0.05 µM ([1]; Table 3, at 50 nM): 61% |
